The values that follow come from paper PMC7496096, “Functional Characterisation of ClpP Mutations Conferring Resistance to Acyldepsipeptide Antibiotics in Firmicutes” (Chembiochem, 2020).

One data set deals with E. faecalis RC7. Format: cell-based, Enterococcus faecalis. As to conditions: resistant clone of E. faecalis 27159; ClpP G68→D (ClpP core). Here is the method: (§1) Determination of antibacterial activity: ADEP1 was purified from the culture supernatant of S. hawaiiensis NRRL 15010 as described.4 ADEPs 2, 4, 7, 9 were custom synthesised by EMC Microcollections, Tübingen, or provided by AiCuris, Wuppertal, Germany. The minimal inhibitory concentration (MIC) was determined by broth microdilution in Mueller‐Hinton broth (without cation adjustment) according to the guidelines of the Clinical Laboratory Standards Institute (CLSI).69 The inoculum was set to 5×10^4 CFU mL^−1 to allow some distance to the determined spontaneous resistance frequencies. […] All other ADEPs were used from DMSO stock solutions kept at −20 °C.
(§2) Screening for ADEP‐resistant mutants and determination of resistance rates: Single colonies of wild‐type strains grown on Mueller‐Hinton agar plates overnight were suspended in sterile saline and a final inoculum of 5×10^6 cells was spread on plates supplemented with different ADEP congeners at 4× and 10× the MIC. For B. subtilis strain 3xclpP, ADEP7‐containing Mueller‐Hinton agar plates were additionally supplemented with 1 mM IPTG. Resistant colonies were counted after 24 h at 37 °C and colonies were randomly chosen for MIC determinations and sequencing. Mutations in the clpP gene of the respective isolated mutants were analysed by amplifying the clpP gene (and upstream promoter region) by PCR and sequencing of the resulting PCR amplicons (LGC genomics). Sequencing data were analysed by using SnapGene software (GSL Biotech).

The test system of another data set is E. faecalis RC4. The class given is cell-based, Enterococcus faecalis. The note with it: resistant clone of E. faecalis 27159; ClpP S43→STOP, premature stop. How it is done: as §1, §2
The test system of the next data set is E. faecalis RC3. The class given is cell-based, Enterococcus faecalis. The note with it: resistant clone of E. faecalis 27159; ClpP G74→D (ClpP core; α3). How it is done: as §1, §2
The test system of the next data set is E. faecalis RC1. The class given is cell-based, Enterococcus faecalis. The note with it: resistant clone of E. faecalis 27159; ClpP G100→STOP (A96→V; M99→Y), premature stop. Here is the method:
as §1, §2

Another data set concerns E. faecalis RC6. Format: cell-based, Enterococcus faecalis. The note with it: resistant clone of E. faecalis 27159; ClpP R147→H (equatorial interface; α5). Here is the method:
as §1, §2

The test system of another data set is E. faecalis RC8. Format: cell-based, Enterococcus faecalis. The note with it: resistant clone of E. faecalis 27159; ClpP D170→Y, oligomerisation sensor. How it is done: as §1, §2
Another data set has as its system E. faecalis RC2. Format: cell-based, Enterococcus faecalis. The note with it: resistant clone of E. faecalis 27159; ClpP H123→Q, active site. How it is done: as §1, §2
For the next data set, the system named is E. faecalis RC5. The class given is cell-based, Enterococcus faecalis. As to conditions: resistant clone of E. faecalis 27159; ClpP A180→V (C-terminus; α7). Here is the method: as §1, §2
A further data set concerns S. pyogenes Wacker. The class given is cell-based, Streptococcus pyogenes. The note with it: broth microdilution, Mueller-Hinton broth; wildtype. How it is done: as §1
For orientation: Dilution methods test growth across graded concentrations, often in twofold steps.

The test system of the next data set is S. pneumoniae RC3. Format: cell-based, Streptococcus pneumoniae. The note with it: resistant clone of S. pneumoniae G9A; ClpP R171→H, oligomerisation sensor. Here is the method: as §1, §2
The next data set relates to S. pneumoniae RC1. The class given is cell-based, Streptococcus pneumoniae. As to conditions: resistant clone of S. pneumoniae G9A; ClpP A94→G (ClpP core; β4). How it is done: as §1, §2
The next data set concerns S. pneumoniae RC2. The class given is cell-based, Streptococcus pneumoniae. As to conditions: resistant clone of S. pneumoniae G9A; ClpP START→I, no expression. Here is the method: as §1, §2
Data set [1] has as its system S. aureus 133. The data set is described as follows: microbe, parasite or virus in culture. Format: cell-based, Staphylococcus aureus. The note with it: broth microdilution, Mueller-Hinton broth (without cation adjustment), CLSI, inoculum 5×10^4 CFU mL^−1, wild type. How it is done: as §1
Data set [2] deals with S. aureus ATCC 29213. The data set is described as follows: microbe, parasite or virus in culture. The class given is cell-based, Staphylococcus aureus. As to conditions: broth microdilution, Mueller-Hinton broth (without cation adjustment), CLSI, inoculum 5×10^4 CFU mL^−1, wild type. Here is the method:
as §1

A further data set concerns B. subtilis 168. Put plainly: microbe, parasite or virus in culture. As to conditions: broth microdilution, Mueller-Hinton broth (without cation adjustment), CLSI, inoculum 5×10^4 CFU mL^−1, wild type. The class given is cell-based, Bacillus subtilis. Here is the method: as §1
In another data set the test system is B. subtilis RC18. Format: cell-based, Bacillus subtilis. As to conditions: resistant clone of B. subtilis 168; ClpP L190→S, ADEP binding site. Here is the method: as §1, §2
The next data set concerns B. subtilis RC17. The class given is cell-based, Bacillus subtilis. The note with it: resistant clone of B. subtilis 168; ClpP D172→V, active site. Here is the method: as §1, §2
A further data set relates to B. subtilis RC14. Format: cell-based, Bacillus subtilis. The note with it: resistant clone of B. subtilis 168; ClpP G107→S (ClpP core). How it is done: as §1, §2
The next data set deals with B. subtilis RC13. Format: cell-based, Bacillus subtilis. The note with it: resistant clone of B. subtilis 168; ClpP I93→STOP, premature stop. Here is the method: as §1, §2
The next data set concerns B. subtilis RC19. Format: cell-based, Bacillus subtilis. The note with it: resistant clone of B. subtilis 168; ClpP Y183→C (C-terminus; α7). Here is the method: as §1, §2
The subject of a further data set is B. subtilis RC15. The class given is cell-based, Bacillus subtilis. As to conditions: resistant clone of B. subtilis 168; ClpP G69→S (ClpP core). How it is done:
as §1, §2

Another data set relates to B. subtilis RC16. Format: cell-based, Bacillus subtilis. The note with it: resistant clone of B. subtilis 168; ClpP I44→F (ClpP core; α2). Here is the method:
as §1, §2

Data set [3] deals with B. subtilis, Enterococcus faecium, E. faecalis, S. pneumoniae, and Streptococcus pyogenes. Put plainly: Spontaneous resistance frequency, further Firmicutes. Format: cell-based. The note with it: same range as the S. aureus resistance rates (10^−6). Here is the method: as §2
The test system of another data set is E. faecalis ATCC 29212. Put plainly: microbe, parasite or virus in culture. As to conditions: broth microdilution, Mueller-Hinton broth (without cation adjustment), CLSI, inoculum 5×10^4 CFU mL^−1, wild type. The class given is cell-based, Enterococcus faecalis. How it is done: as §1
Another data set concerns S. pyogenes RC1. The class given is cell-based, Streptococcus pyogenes. The note with it: resistant clone of S. pyogenes Wacker; Y insertion after N40 (ClpP core; α2). Here is the method:
as §1
as §2, with “Resistant colonies were counted after 24 h at 37 °C and colonies were randomly chosen for MIC determinations and sequencing.” left out

In a further data set the test system is S. pyogenes RC2. The class given is cell-based, Streptococcus pyogenes. As to conditions: resistant clone of S. pyogenes Wacker; ClpP L46→P (ClpP core; α2). Here is the method:
as §1
as §2, with “Resistant colonies were counted after 24 h at 37 °C and colonies were randomly chosen for MIC determinations and sequencing.” left out

Data set [4] is described as follows: Stability of dissolved compound. The note with it: dissolved in DMSO; reason for fresh dissolution before MIC determination. The class given is physicochemical. Here is the method:
as §1

The test system of a further data set is S. pneumoniae G9A. Format: cell-based, Streptococcus pneumoniae. As to conditions: broth microdilution, Mueller-Hinton broth; wildtype. How it is done: as §1
The next data set relates to E. faecalis 27159. Format: cell-based, Enterococcus faecalis. As to conditions: broth microdilution, Mueller-Hinton broth; wildtype. Here is the method:
as §1

The subject of a further data set is S. aureus. Put plainly: MIC against S. aureus, summary of Table 1. Format: cell-based, Staphylococcus aureus. The note with it: text summary of Table 1, strain not named. How it is done: as §1
Data set [5] has as its system S. aureus 133. The data set is described as follows: Spontaneous resistance rate on ADEP-containing agar. Format: cell-based, Staphylococcus aureus. As to conditions: ADEP exposure 4× MIC in Mueller-Hinton agar; 5×10^6 cells plated, colonies counted after 24 h at 37 °C. Here is the method:
as §2

Data set [6] has as its system S. aureus ATCC 29213. The description is as above. Format: cell-based, Staphylococcus aureus. The note with it: ADEP exposure 4× MIC in Mueller-Hinton agar; 5×10^6 cells plated, colonies counted after 24 h at 37 °C. How it is done:
as §2

Converted amounts (≈) assume the structure as drawn. Read-outs that look alike come from different tables or passages of the source. Positions of bridges follow the written chain, without caps; N, C: chain ends. Non-standard residues stand in square brackets, D forms with d. Residues, ends and D or L forms follow the SMILES beside them. *: point of attachment. Octatrienoyl(2E,4E,6E) = C/C=C/C=C/C=C/C(=O)*; Pro(4R-Me) = C[C@H]1CN[C@H](C(=O)O)C1; NMeA = CN[C@@H](C)C(=O)O; X1 = CCC/C=C/C(=O)*

Turning to `C/C=C/C=C/C=C/C(=O)N[C@@H](Cc1ccccc1)C(=O)N[C@H]1COC(=O)[C@@H]2C[C@@H](C)CN2C(=O)[C@H](C)NC(=O)[C@H](C)N(C)C(=O)[C@@H]2CCCN2C1=O` [ADEP1] ({Octatrienoyl(2E,4E,6E)}-FSP[NMeA]A[Pro(4R-Me)]; ester 2-C), the MIC with E. faecalis RC7, with E. faecalis RC4, in the data set on E. faecalis RC3, in the data set on E. faecalis RC1, against E. faecalis RC6 and against E. faecalis RC8 was >64 µg/mL throughout. In addition, the MIC against E. faecalis RC2 is >64 µg/mL; against E. faecalis RC5 it was >64 µg/mL; against S. pyogenes Wacker it was 0.12 µg/mL (≈ 0.167 µM); against S. pneumoniae RC3, >32 µg/mL; with S. pneumoniae RC1, >32 µg/mL; in the data set on S. pneumoniae RC2, >32 µg/mL. Moreover, the MIC in the data set on S. aureus 133 [1] is 0.5 µg/mL (≈ 0.696 µM); in the data set on S. aureus ATCC 29213 [2] it was 1 µg/mL (≈ 1.39 µM); against B. subtilis 168, 0.063 µg/mL (≈ 0.0876 µM); in the data set on B. subtilis RC18, 16 µg/mL (≈ 22.3 µM); with B. subtilis RC17, >64 µg/mL; against B. subtilis RC14 it was 0.5 µg/mL (≈ 0.696 µM). Moreover, the MIC against B. subtilis RC13 is >64 µg/mL; with B. subtilis RC19, >64 µg/mL; against B. subtilis RC15, >64 µg/mL; with B. subtilis RC16 it was 8 µg/mL (≈ 11.1 µM); against E. faecalis ATCC 29212, 0.063 µg/mL (≈ 0.0876 µM); against S. pyogenes RC1, >32 µg/mL. Further, the MIC with S. pyogenes RC2 is >32 µg/mL; with S. pneumoniae G9A, 0.12 µg/mL (≈ 0.167 µM); against E. faecalis 27159 it was 0.12 µg/mL (≈ 0.167 µM). Also, in data set [3], the spontaneous resistance frequencies result is “in the same range”. Further, in data set [4], the stability result is “rather unstable”.

For the molecule `C[C@H]1c2cccc(O)c2C(=O)C2=C(O)[C@]3(O)C(=O)C(C(N)=O)=C(O)[C@@H](N(C)C)[C@@H]3[C@@H](O)[C@@H]21` [Doxycycline, reference compound], the MIC is 0.06 µg/mL (≈ 0.135 µM) in the data set on S. aureus 133 [1] (Staphylococcus aureus, 133, read-out: MIC); 0.06 µg/mL (≈ 0.135 µM) in the data set with S. aureus ATCC 29213 [2] (Staphylococcus aureus, ATCC29213, read-out: MIC); 0.125 µg/mL (≈ 0.281 µM) in the data set on B. subtilis 168 (Bacillus subtilis, 168, read-out: MIC); 4 to 8 µg/mL (≈ 9 to 18 µM) in the data set with E. faecalis ATCC 29212 (Enterococcus faecalis, ATCC29212, read-out: MIC).

As to `CCC/C=C/C(=O)N[C@@H](Cc1ccccc1)C(=O)N[C@H]1COC(=O)[C@@H]2CCCN2C(=O)[C@H](C)NC(=O)[C@H](C)N(C)C(=O)[C@@H]2CCCN2C1=O` [ADEP7] (X1-FSP[NMeA]AP; ester 2-C), the “minimal inhibitory concentration (MIC) against S. aureus” value in the data set with S. aureus is 8 µg/mL (≈ 11.8 µM). The Resistance rate is given as 4×10^−6 with S. aureus 133 [5] and 6×10^−7 with S. aureus ATCC 29213 [6]. The values for the MIC in the data set with S. aureus 133 [1], in the data set with B. subtilis 168 and with E. faecalis ATCC 29212 were 4 µg/mL (≈ 5.88 µM), 0.5 µg/mL (≈ 0.734 µM) and 2 µg/mL (≈ 2.94 µM), respectively.
